Assay results: PubChem BioAssay (NCI)
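Following 48 hours of exposure in 96-well plates, responses at five concentrations were used to interpolate endpoints linearly. GI50: concentration for 50% inhibition of growth. TGI marks complete inhibition of growth.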

Legend:
Experiment in all cases: NCI tumour cell line growth inhibition, 48 h
786-0 renal = test system: 786-0 renal
A498 renal = test system: A498 renal
A549 NSCLC = test system: A549 NSCLC
ACHN renal = test system: ACHN renal
BT-549 breast = test system: BT-549 breast
CAKI-1 renal = test system: CAKI-1 renal
CCRF-CEM leukemia = test system: CCRF-CEM leukemia
COLO 205 colon = test system: COLO 205 colon
DU-145 prostate = test system: DU-145 prostate
EKVX NSCLC = test system: EKVX NSCLC
HCC-2998 colon = test system: HCC-2998 colon
HCT-116 colon = test system: HCT-116 colon
HCT-15 colon = test system: HCT-15 colon
HL-60(TB) leukemia = test system: HL-60(TB) leukemia
HOP-62 NSCLC = test system: HOP-62 NSCLC
HOP-92 NSCLC = test system: HOP-92 NSCLC
HS 578T breast = test system: HS 578T breast
HT29 colon = test system: HT29 colon
IGROV1 ovarian = test system: IGROV1 ovarian
K-562 leukemia = test system: K-562 leukemia
KM12 colon = test system: KM12 colon
LOX IMVI melanoma = test system: LOX IMVI melanoma
M14 melanoma = test system: M14 melanoma
MALME-3M melanoma = test system: MALME-3M melanoma
MCF7 breast = test system: MCF7 breast
MDA-MB-231 breast = test system: MDA-MB-231 breast
MDA-MB-435 = test system: MDA-MB-435
MOLT-4 leukemia = test system: MOLT-4 leukemia
NCI-H226 lung = test system: NCI-H226 lung
NCI-H23 lung = test system: NCI-H23 lung
NCI-H460 lung = test system: NCI-H460 lung
NCI/ADR-RES ovarian = test system: NCI/ADR-RES ovarian
OVCAR-3 ovarian = test system: OVCAR-3 ovarian
OVCAR-4 ovarian = test system: OVCAR-4 ovarian
OVCAR-5 ovarian = test system: OVCAR-5 ovarian
OVCAR-8 ovarian = test system: OVCAR-8 ovarian
PC-3 prostate = test system: PC-3 prostate
RPMI-8226 leukemia = test system: RPMI-8226 leukemia
RXF 393 renal = test system: RXF 393 renal
SF-268 CNS = test system: SF-268 CNS
SF-295 CNS = test system: SF-295 CNS
SF-539 CNS = test system: SF-539 CNS
SK-MEL-2 melanoma = test system: SK-MEL-2 melanoma
SK-MEL-28 melanoma = test system: SK-MEL-28 melanoma
SK-MEL-5 melanoma = test system: SK-MEL-5 melanoma
SK-OV-3 ovarian = test system: SK-OV-3 ovarian
SN12C renal = test system: SN12C renal
SNB-19 CNS = test system: SNB-19 CNS
SNB-75 CNS = test system: SNB-75 CNS
SR leukemia = test system: SR leukemia
SW-620 colon = test system: SW-620 colon
T-47D breast = test system: T-47D breast
TK-10 renal = test system: TK-10 renal
U251 CNS = test system: U251 CNS
UACC-257 melanoma = test system: UACC-257 melanoma
UACC-62 melanoma = test system: UACC-62 melanoma
UO-31 renal = test system: UO-31 renal

With `O=C(Nc1cc(Cl)cc(Cl)c1)Nc1nc2ccc([N+](=O)[O-])cc2s1` the GI50 (786-0 renal) was 1470 nM, the TGI (786-0 renal) was 5.86 µM and the GI50 (A498 renal) was 287 nM. For the same compound, the TGI (A498 renal) was 1040 nM, the GI50 (A549 NSCLC) was 1700 nM and the TGI (A549 NSCLC) was > 100 µM. The GI50 (ACHN renal) was 1370 nM, the TGI (ACHN renal) was 21.8 µM and the GI50 (BT-549 breast) was 1680 nM. For the same compound, the TGI (BT-549 breast) was 4.66 µM, the GI50 (CAKI-1 renal) was 992 nM and the TGI (CAKI-1 renal) was 8.47 µM. For the same compound, the GI50 (CCRF-CEM leukemia) was 429 nM, the TGI (CCRF-CEM leukemia) was 3.88 µM and the GI50 (COLO 205 colon) was 646 nM. For the same compound, the TGI (COLO 205 colon) was 2210 nM, the GI50 (DU-145 prostate) was 1720 nM and the TGI (DU-145 prostate) was > 100 µM. The GI50 (EKVX NSCLC) was 1140 nM, the TGI (EKVX NSCLC) was 7.63 µM and the GI50 (HCC-2998 colon) was 503 nM. The TGI (HCC-2998 colon) was 4.07 µM, the GI50 (HCT-116 colon) was 570 nM and the TGI (HCT-116 colon) was 4.76 µM. For the same compound, the GI50 (HCT-15 colon) was 769 nM, the TGI (HCT-15 colon) was > 100 µM and the GI50 (HL-60(TB) leukemia) was 714 nM. The TGI (HL-60(TB) leukemia) was 2860 nM, the GI50 (HOP-62 NSCLC) was 1780 nM and the TGI (HOP-62 NSCLC) was 5.5 µM. It also gave a GI50 (HOP-92 NSCLC) of 212 nM, a TGI (HOP-92 NSCLC) of 670 nM and a GI50 (HS 578T breast) of 999 nM. For the same compound, the TGI (HS 578T breast) was 4.72 µM, the GI50 (HT29 colon) was 1610 nM and the TGI (HT29 colon) was > 100 µM. It also gave a GI50 (IGROV1 ovarian) of 1770 nM, a TGI (IGROV1 ovarian) of 84.5 µM and a GI50 (K-562 leukemia) of 504 nM. For the same compound, the TGI (K-562 leukemia) was > 24.3 µM, the GI50 (KM12 colon) was 1160 nM and the TGI (KM12 colon) was 7.33 µM. It also gave a GI50 (LOX IMVI melanoma) of 839 nM, a TGI (LOX IMVI melanoma) of 2440 nM and a GI50 (M14 melanoma) of 1880 nM. The TGI (M14 melanoma) was 5.79 µM, the GI50 (MALME-3M melanoma) was 518 nM and the TGI (MALME-3M melanoma) was 5.72 µM. The GI50 (MCF7 breast) was 717 nM, the TGI (MCF7 breast) was > 100 µM and the GI50 (MDA-MB-231 breast) was 1190 nM. The TGI (MDA-MB-231 breast) was 4.12 µM, the GI50 (MDA-MB-435) was 1510 nM and the TGI (MDA-MB-435) was 6.77 µM. The GI50 (MOLT-4 leukemia) was 685 nM, the TGI (MOLT-4 leukemia) was 3.23 µM and the GI50 (NCI-H226 lung) was 1040 nM. For the same compound, the TGI (NCI-H226 lung) was 3.15 µM, the GI50 (NCI-H23 lung) was 378 nM and the TGI (NCI-H23 lung) was 2310 nM. For the same compound, the GI50 (NCI-H460 lung) was 1480 nM, the TGI (NCI-H460 lung) was > 100 µM and the GI50 (NCI/ADR-RES ovarian) was 800 nM. The TGI (NCI/ADR-RES ovarian) was 6.2 µM, the GI50 (OVCAR-3 ovarian) was 722 nM and the TGI (OVCAR-3 ovarian) was 8.2 µM. The GI50 (OVCAR-4 ovarian) was 583 nM, the TGI (OVCAR-4 ovarian) was > 100 µM and the GI50 (OVCAR-5 ovarian) was 2650 nM. The TGI (OVCAR-5 ovarian) was > 100 µM, the GI50 (OVCAR-8 ovarian) was 1740 nM and the TGI (OVCAR-8 ovarian) was > 100 µM. For the same compound, the GI50 (PC-3 prostate) was 568 nM, the TGI (PC-3 prostate) was > 100 µM and the GI50 (RPMI-8226 leukemia) was 376 nM. It also gave a TGI (RPMI-8226 leukemia) of 1590 nM, a GI50 (RXF 393 renal) of 558 nM and a TGI (RXF 393 renal) of 2170 nM. The GI50 (SF-268 CNS) was 1610 nM, the TGI (SF-268 CNS) was > 100 µM and the GI50 (SF-295 CNS) was 524 nM. For the same compound, the TGI (SF-295 CNS) was 1920 nM, the GI50 (SF-539 CNS) was 1180 nM and the TGI (SF-539 CNS) was 5.43 µM. For the same compound, the GI50 (SK-MEL-2 melanoma) was 771 nM, the TGI (SK-MEL-2 melanoma) was 3.83 µM and the GI50 (SK-MEL-28 melanoma) was 1030 nM. The TGI (SK-MEL-28 melanoma) was 3.58 µM, the GI50 (SK-MEL-5 melanoma) was 446 nM and the TGI (SK-MEL-5 melanoma) was 1660 nM. It also gave a GI50 (SK-OV-3 ovarian) of 1450 nM, a TGI (SK-OV-3 ovarian) of 5.6 µM and a GI50 (SN12C renal) of 752 nM. It also gave a TGI (SN12C renal) of 5.62 µM, a GI50 (SNB-19 CNS) of 1190 nM and a TGI (SNB-19 CNS) of 25.7 µM. It also gave a GI50 (SNB-75 CNS) of 1040 nM, a TGI (SNB-75 CNS) of 3.83 µM and a GI50 (SR leukemia) of 320 nM. For the same compound, the TGI (SR leukemia) was 2100 nM, the GI50 (SW-620 colon) was 1630 nM and the TGI (SW-620 colon) was 85.7 µM. For the same compound, the GI50 (T-47D breast) was 571 nM, the TGI (T-47D breast) was 6.15 µM and the GI50 (TK-10 renal) was 2210 nM. For the same compound, the TGI (TK-10 renal) was 13.3 µM, the GI50 (U251 CNS) was 909 nM and the TGI (U251 CNS) was > 100 µM. It also gave a GI50 (UACC-257 melanoma) of 950 nM, a TGI (UACC-257 melanoma) of 4.84 µM and a GI50 (UACC-62 melanoma) of 569 nM. For the same compound, the TGI (UACC-62 melanoma) was 2210 nM, the GI50 (UO-31 renal) was 708 nM and the TGI (UO-31 renal) was 2800 nM.
